The values below come from US10858339B2, “Aryl cyclopropyl-amino-isoquinolinyl amide compounds” (priority 2017, dated 2020).

The target of assay [1] is Rho Kinase. The assay is described as follows: ROCK kinase inhibition assay (Rho Kinase Activity, isoform not given). In kind it is biochemical. As to conditions: Table 15, mostly given as ranges. The method, then: All compounds were initially prepared as 10 mM stocks in anhydrous dimethylsulfoxide (DMSO). A 20 μl aliquot of the 10 mM solutions was transferred to individual wells in column 1 of a 96-well polypropylene microtiter plate (Corning #3363) and diluted with DMSO to give a final compound concentration of 4 mM. Test compounds were then serially diluted 1:5 in DMSO for an 11-point concentration response and further diluted in the assay buffer bringing all compound concentrations to a final range of 100 μM to […] in 2.5% DMSO. The assay was performed in white 96-well, flat-bottom, half-area, non-binding assay plate (Corning #3642) in assay buffer consisting of 20 mM HEPES (pH 7.5), 10 mM MgCl2*6H2O, 100 μM sodium orthovanadate, 0.05% CHAPS and 0.1% bovine serum albumin. A 10 μL aliquot of compound from each well of the intermediate dilution plate and 20 μL of a 2× substrate/enzyme solution containing acceptor substrate (800 nM RSK2 peptide […] (SEQ ID NO: 1)), ROCK2 enzyme (10 nM), or ROCK1 enzyme, and 1,4-Dithiothreitol (DTT, 2 uM) were added to all wells. The reaction was initiated by the addition of 10 μL of 4× stock solution ATP (2 μM). Reactions were thoroughly mixed manually, covered and allowed to incubate at room temperature for 75 min. Protein kinase activity was quantitated using Promega's KINASE-GLO™ luminescent Kinase Assay Kit according to the manufacturer's directions. ATP concentrations remaining in Test wells following the termination of the enzymatic reaction were compared against control wells containing equivalent amounts of DMSO containing no inhibitor (CTRL). […] Percent of Control (POC) values were determined for each concentration of compound tested according to the equation: POC=((Test well value−BKG)/(CTRL−BKG))*100
IC50 values were converted to K; […]

The target of assay [2] is JAK2 (Homo sapiens, UniProt O60674). Put plainly: JAK kinase assay, JAK2 enzyme.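 Further: JAK2 kinase reaction run 75 min at room temperature, leftover ATP read by Kinase-Glo luminescence, 11-point dilution series in 2.5% DMSO, percent of inhibitor-free DMSO control.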 In kind it is biochemical. Particulars: Table 15; in brackets in the activity cell; read-out: JAK2 activity.

SMILES strings stand for the structures. Where a name gives a salt, the structure may show the parent alone.

Sequence of JAK2 (O60674 whole entry, species assumed): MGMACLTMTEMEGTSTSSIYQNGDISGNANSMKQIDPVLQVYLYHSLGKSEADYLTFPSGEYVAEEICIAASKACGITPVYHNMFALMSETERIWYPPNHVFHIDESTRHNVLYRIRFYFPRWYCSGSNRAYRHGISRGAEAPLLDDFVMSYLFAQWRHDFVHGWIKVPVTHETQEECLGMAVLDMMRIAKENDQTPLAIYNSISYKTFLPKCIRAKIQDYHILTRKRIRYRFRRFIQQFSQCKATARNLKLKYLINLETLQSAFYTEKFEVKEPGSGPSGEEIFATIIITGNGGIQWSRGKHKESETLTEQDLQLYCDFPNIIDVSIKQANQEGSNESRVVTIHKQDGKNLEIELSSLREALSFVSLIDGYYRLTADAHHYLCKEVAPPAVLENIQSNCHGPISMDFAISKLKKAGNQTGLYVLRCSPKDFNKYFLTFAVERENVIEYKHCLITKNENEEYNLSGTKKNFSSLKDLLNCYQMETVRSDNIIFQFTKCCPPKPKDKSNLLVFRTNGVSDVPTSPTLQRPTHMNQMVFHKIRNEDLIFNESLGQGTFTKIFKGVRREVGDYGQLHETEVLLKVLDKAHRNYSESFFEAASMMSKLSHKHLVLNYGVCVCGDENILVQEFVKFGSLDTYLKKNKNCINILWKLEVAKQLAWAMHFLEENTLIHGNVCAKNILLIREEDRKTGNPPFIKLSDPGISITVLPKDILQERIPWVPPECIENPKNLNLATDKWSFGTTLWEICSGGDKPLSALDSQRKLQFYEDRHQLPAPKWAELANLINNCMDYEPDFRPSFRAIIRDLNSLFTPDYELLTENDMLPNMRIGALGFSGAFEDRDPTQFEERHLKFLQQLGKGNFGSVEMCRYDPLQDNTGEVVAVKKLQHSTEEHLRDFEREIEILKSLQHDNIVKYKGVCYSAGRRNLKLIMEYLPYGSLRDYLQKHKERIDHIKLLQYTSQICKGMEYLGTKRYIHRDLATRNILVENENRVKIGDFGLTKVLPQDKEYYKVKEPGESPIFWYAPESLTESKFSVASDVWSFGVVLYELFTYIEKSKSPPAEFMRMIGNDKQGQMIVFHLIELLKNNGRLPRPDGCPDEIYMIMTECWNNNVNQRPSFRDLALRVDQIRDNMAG

Compound `O=C(Nc1ccc2cnccc2c1)C1CC1c1ccccc1` (centres unmarked) returned a Ki in assay [1] of 0.005 to 0.013 µM. Compound `O=C(Nc1ccc2cnccc2c1)C1CC1c1ccc(COCc2ccccc2)cc1` (centres unmarked) gave a Ki in assay [1] of 0.35 to 0.6 µM.

`O=C1CC(c2ccccc2)CN1c1ccc2cnccc2c1` (centres unmarked): the Ki in assay [1] is 0.65 to 1.35 µM. As for `O=C(OCc1ccccn1)c1ccc([C@@H]2C[C@H]2C(=O)Nc2ccc3cnccc3c2)cc1` (racemic) [Example E99, trans-pyridin-2-ylmethyl 4-(2-(isoquinolin-6-ylcarbamoyl)cyclopropyl) benzoate], the Ki in assay [1] fell in the range of 0.0005 to 0.006 µM; in assay [2], 0.25 to 0.6 µM.

Turning to `O=Cc1ccc([C@@H]2C[C@H]2C(=O)Nc2ccc3cnccc3c2)cc1` (racemic) [Example E159, trans-2-(4-formylphenyl)-N-(isoquinolin-6-yl)cyclopropane-1-carboxamide], the figures for the Ki in assay [1] and in assay [2] were 0.02 to 0.05 µM and 0.27 µM, respectively. Compound `O=C(Nc1ccc2cnccc2c1)[C@@H]1C[C@H]1c1ccc(S(=O)(=O)N2CCNCC2)cc1` (racemic) [Example E248H, trans)-N-(isoquinolin-6-yl)-2-(4-(piperazin-1-ylsulfonyl)phenyl) cyclopropane-1-carboxamide dihydrochloride] had a Ki in assay [1] of 0.03 to 0.05 µM. On to `O=C(NCc1cccnc1)c1ccc([C@@H]2C[C@H]2C(=O)Nc2ccc3cnccc3c2)cc1` (relative stereo) [Example E8, trans-4-(2-(isoquinolin-6-ylcarbamoyl)cyclopropyl)-N-(pyridin-3-ylmethyl)benzamide], for which the results for the Ki in assay [1] and in assay [2] were 0.001 to 0.01 µM and 0.2 µM, respectively. As for `O=C(OCc1ccccc1)c1ccc([C@@H]2C[C@H]2C(=O)Nc2ccc3cnccc3c2)cc1` (relative stereo) [Example E96, trans-benzyl 4-(2-(isoquinolin-6-ylcarbamoyl)cyclopropyl)benzoate], the Ki in assay [1] lay within 0.02 to 0.13 µM; in assay [2], 1.6 to 5 µM. In assay [1], `O=C(NCc1cccc(F)c1)OCc1ccc([C@@H]2C[C@H]2C(=O)Nc2ccc3cnccc3c2)cc1` (relative stereo) [Example E142, trans-4-(2-(isoquinolin-6-ylcarbamoyl)cyclopropyl)benzyl (3-fluorobenzyl)carbamate] displayed a Ki of 0.03 to 0.8 µM. Same read-out and setting: under `O=C(Nc1ccc2cnccc2c1)[C@@H]1C[C@H]1c1ccc(CNCc2cccnc2)cc1` (relative stereo) [Example E160, trans-N-(isoquinolin-6-yl)-2-(4-(((pyridin-3-ylmethyl)amino)methyl)phenyl)cyclopropane-1-carboxamide] stands 0.25 to 0.8 µM.

`O=C(OCc1ccccc1)c1cccc([C@@H]2C[C@H]2C(=O)Nc2ccc3cnccc3c2)c1` (relative stereo) [Example E170, trans-benzyl 3-(2-(isoquinolin-6-ylcarbamoyl)cyclopropyl)benzoate] came in with a Ki in assay [1] of 0.65 to 1.25 µM.

`O=C(Nc1ccc2cnccc2c1)[C@@H]1C[C@H]1c1ccc(OCc2ccccc2)cc1` (relative stereo) [Example E210, trans-2-(4-(benzyloxy)phenyl)-N-(isoquinolin-6-yl)cyclopropane-1-carboxamide] returned a Ki in assay [1] of 0.06 to 0.3 µM.

With `O=C(Nc1ccc2cnccc2c1)[C@@H]1C[C@H]1c1ccc(S(=O)(=O)Nc2ccccc2)cc1` (relative stereo) [Example E247A, trans-N-(isoquinolin-6-yl)-2-(4-(N-phenylsulfamoyl)phenyl) cyclopropane-1-carboxamide], the Ki in assay [1] lay within 0.07 to 0.35 µM. The same measure, in the same setting: as for `O=C(Nc1ccc2cnccc2c1)[C@@H]1C[C@H]1c1ccc(S(=O)(=O)NCC2CCNCC2)cc1` (relative stereo) [Example E248D, trans-N-(isoquinolin-6-yl)-2-(4-(N-(piperidin-4-ylmethyl)sulfamoyl)phenyl) cyclopropane-1-carboxamide dihydrochloride], the figure is 0.005 to 0.009 µM; as for `O=C(Nc1ccc2cncc(Cl)c2c1)[C@@H]1C[C@H]1c1ccc(S(=O)(=O)NC[C@H]2CCCNC2)cc1` [E250E*], 0.009 to 0.011 µM. On the same count and under the same terms, under `O=C(NCc1ccncc1)c1ccc(C2CC2C(=O)Nc2ccc3cnccc3c2)cc1` (centres unmarked) [Example E10] stands 0.001 to 0.007 µM; under `O=C(NCc1ccc(Cl)cc1)c1ccc(C2CC2C(=O)Nc2ccc3cnccc3c2)cc1` (centres unmarked) [Example E14], 0.003 to 0.043 µM. The compound `O=C(NCc1ccc(OC(F)(F)F)cc1)c1ccc(C2CC2C(=O)Nc2ccc3cnccc3c2)cc1` (centres unmarked) [Example E15.1] yielded a Ki in assay [1] of 0.065 to 0.11 µM. In assay [1], `COc1ccc(CNC(=O)c2ccc(C3CC3C(=O)Nc3ccc4cnccc4c3)cc2)cc1` (centres unmarked) [Example E15] registered a Ki of 0.001 to 0.005 µM.

Compound `O=C(NCc1cccs1)c1ccc(C2CC2C(=O)Nc2ccc3cnccc3c2)cc1` (centres unmarked) [Example E17] had a Ki in assay [1] of 0.002 to 0.004 µM. `CC(C)(C)OC(=O)N1CCCC(CNC(=O)c2ccc(C3CC3C(=O)Nc3ccc4cnccc4c3)cc2)C1` (centres unmarked) [Example E30.1]: the Ki in assay [1] is 0.01 to 0.037 µM. In assay [1], `O=C(NCC1CCCNC1)c1ccc(C2CC2C(=O)Nc2ccc3cnccc3c2)cc1` (centres unmarked) [Example E30.2] gave a Ki of 0.001 to 0.008 µM. In assay [1], `Cc1nccc2cc(NC(=O)C3CC3c3ccc(C(=O)NCc4cccnc4)cc3)ccc12` (centres unmarked) [Example E36] registered a Ki of 0.075 to 0.2 µM. Turning to `O=C(Nc1ccc(Oc2ccccc2)cc1)c1ccc(C2CC2C(=O)Nc2ccc3cnccc3c2)cc1` (centres unmarked) [Example E39.1], the Ki in assay [1] fell in the range of 0.075 to 0.11 µM. Take `O=C(NCc1ccccc1)c1ccc([C@@H]2C[C@H]2C(=O)Nc2ccc3cnccc3c2F)cc1` [Example E115.1]: in assay [1], the Ki was in the range of 0.0001 to 0.001 µM. The same measure, in the same setting: under `CC(C)(C)OC(=O)N1CCC(CNCc2ccc(C3CC3C(=O)Nc3ccc4cnccc4c3)cc2)CC1` (centres unmarked) [Example E162.1] stands 0.2 to 0.6 µM; under `O=C(Nc1ccc2cnccc2c1)C1CC1c1ccc(CNCC2CCNCC2)cc1` (centres unmarked) [Example E162.2], 0.125 to 0.3 µM. `O=C(NCc1ccncc1)c1cccc(C2CC2C(=O)Nc2ccc3cnccc3c2)c1` (centres unmarked) [Example E174]: the Ki in assay [1] was in the range of 0.00015 to 0.0003 µM. For `O=C(NCc1ccc2ccncc2c1)c1ccc(C2CC2C(=O)Nc2ccc3cnccc3c2)cc1F` (centres unmarked) [Example E195.1], in assay [1], the Ki fell in the range of 0.004 to 0.007 µM. On to `CC(C)(C)OC(=O)N1CCC(CNC(=O)c2ccc(C3CC3C(=O)Nc3ccc4cnccc4c3)cc2F)CC1` (centres unmarked) [Example E195.2], for which the Ki in assay [1] was 0.0004 to 0.001 µM. On the same count and under the same terms, under `O=C(NCc1ccc(Cl)cc1)c1ccc(C2CC2C(=O)Nc2ccc3cnccc3c2)c(F)c1` (centres unmarked) [Example E195] stands 0.07 to 0.1 µM. Compound `C[C@@H]1OC(c2ccc(C3CC(=O)N(c4ccc5cnccc5c4)C3)cc2)O[C@H]1C` (stereo partly drawn) [Example E223, 4-(4-((4S,5S)-4,5-dimethyl-1,3-dioxolan-2-yl)phenyl)-1-(isoquinolin-6-yl)pyrrolidin-2-one] displayed a Ki in assay [1] of 8 to 15 µM. For `O=Cc1ccc(C2CC(=O)N(c3ccc4cnccc4c3)C2)cc1` (centres unmarked) [Example E224, 4-(1-(isoquinolin-6-yl)-5-oxopyrrolidin-3-yl)benzaldehyde], the Ki in assay [1] is 2.6 to 6.75 µM. In assay [1], `O=C1CC(c2ccc(CNCc3cccnc3)cc2)CN1c1ccc2cnccc2c1` (centres unmarked) [Example E225, 1-(isoquinolin-6-yl)-4-(4-(((pyridin-3-ylmethyl)amino)methyl)phenyl)pyrrolidin-2-one] yielded a Ki of 1.35 to 2.2 µM. The compound `O=C1CC(c2ccc(CNCc3ccccn3)cc2)CN1c1ccc2cnccc2c1` (centres unmarked) [Example E226] had a Ki in assay [1] of 1.9 to 9.3 µM. In assay [1], `CC(C)(C)OC(=O)N1CCC(CNCc2ccc(C3CC(=O)N(c4ccc5cnccc5c4)C3)cc2)CC1` (centres unmarked) [Example E227.1] gave a Ki of 1.3 to 4 µM.

As for `O=C1CC(c2ccc(CNCC3CCNCC3)cc2)CN1c1ccc2cnccc2c1` (centres unmarked) [Example E227.2], the Ki in assay [1] fell in the range of 0.3 to 0.6 µM.

As for `CC(C)(C)OC(=O)c1ccc(C2CC(=O)N(c3ccc4cnccc4c3)C2)cc1` (centres unmarked) [Example E230, tert-butyl 4-(1-(isoquinolin-6-yl)-5-oxopyrrolidin-3-yl)benzoate], the Ki in assay [1] was in the range of 14 to 25 µM. Consider `CC(C)(C)OC(=O)c1ccc(C2CC(=O)N(c3ccc4cnccc4c3)C2)cc1F` (centres unmarked) [Example E230.1], for which the Ki in assay [1] was determined as 9.3 µM.

In turn, `O=C(O)c1ccc(C2CC(=O)N(c3ccc4cnccc4c3)C2)cc1` (centres unmarked) [Example E231, 4-(1-(isoquinolin-6-yl)-5-oxopyrrolidin-3-yl)benzoic acid] came in with a Ki in assay [1] of 34 to 68 µM.

Consider `O=C(NCc1cccnc1)c1ccc(C2CC(=O)N(c3ccc4cnccc4c3)C2)cc1` (centres unmarked) [Example E232, 4-(1-(isoquinolin-6-yl)-5-oxopyrrolidin-3-yl)-N-(pyridin-3-ylmethyl)benzamide], for which, in assay [1], the Ki fell in the range of 6.5 to 16 µM. Compound `O=C(NCC1CCNCC1)c1ccc(C2CC(=O)N(c3ccc4cnccc4c3)C2)cc1` (centres unmarked) [Example E234.2] displayed a Ki in assay [1] of 1 to 1.25 µM. Still for that read-out and setting: under `O=C(Nc1ccc2cnccc2c1)[C@@H]1C[C@H]1c1ccc(S(=O)(=O)NC[C@@H]2CCCNC2)cc1` [Example E248F, trans-N-(isoquinolin-6-yl)-2-(4-(N—(((R)-piperidin-3-yl)methyl)sulfamoyl)phenyl)-cyclopropane-1-carboxamide dihydrochloride] stands 0.003 to 0.005 µM.
